In ChEMBL document CHEMBL5260836, “Combating Autoimmune Diseases With Retinoic Acid Receptor-Related Orphan Receptor-γ (RORγ or RORc) Inhibitors: Hits and Misses” (J Med Chem, 2018):
Converted amounts (≈) assume the structure as drawn. One block for each compound: values may come before it.

Assays:
[1] = Inhibition of IL-22 production in human PBMC by ELISA; type: functional, cell-based
[2] = Inhibition of IL-17A production in human PBMC by ELISA; type: functional, cell-based
[3] = Inhibition of IL-21 production in human PBMC by ELISA; type: functional, cell-based
[4] = Inhibition of IL-17F production in human PBMC by ELISA; type: functional, cell-based
[5] = target: T1, Nuclear receptor ROR-gamma (Homo sapiens, UniProt P51449); experiment: Antagonist activity at RORgammat LBD (unknown origin) assessed as fluorescent polarization signal measured in presence of fluorescein-labeled LXR agonist T0901317 after 4 hrs by competitive binding assay
T1 sequence (P51449 whole entry): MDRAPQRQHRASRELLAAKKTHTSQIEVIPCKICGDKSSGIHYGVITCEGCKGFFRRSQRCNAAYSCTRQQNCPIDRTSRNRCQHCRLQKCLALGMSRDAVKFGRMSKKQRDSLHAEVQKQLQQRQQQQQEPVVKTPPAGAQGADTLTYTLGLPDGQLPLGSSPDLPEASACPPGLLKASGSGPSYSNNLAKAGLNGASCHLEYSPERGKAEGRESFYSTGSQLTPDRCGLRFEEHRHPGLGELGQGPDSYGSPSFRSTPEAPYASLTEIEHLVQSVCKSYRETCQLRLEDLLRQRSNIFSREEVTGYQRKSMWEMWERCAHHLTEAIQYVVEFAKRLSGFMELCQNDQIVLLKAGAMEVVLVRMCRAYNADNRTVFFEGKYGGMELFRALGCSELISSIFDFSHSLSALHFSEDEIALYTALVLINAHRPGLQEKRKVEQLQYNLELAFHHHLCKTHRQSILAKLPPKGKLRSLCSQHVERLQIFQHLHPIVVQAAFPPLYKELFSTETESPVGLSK

[6] = Inhibition of human Th17 cell differentiation; type: functional, cell-based
[7] = target: T1, Nuclear receptor ROR-gamma; experiment: Inhibition of human RORgammat expressed in COS7 cells by luciferase assay; type: cell-based
[8] = target: T1, Nuclear receptor ROR-gamma; experiment: Inhibition of human GAL4-fused RORgammat LBD transfected in Escherichia coli BL21(DE3) cell measured after 16 hrs by HTRF assay
[9] = target: T1, Nuclear receptor ROR-gamma; experiment: Inhibition of GAL4-RORgammat LBD (unknown origin); type: cell-based, HEK293
Homo sapiens [10] = species: Homo sapiens; experiment: Ex-vivo reduction in proinflammatory cytokine levels in psoriasis patient assessed as reduction in IL-22 level in skin tissue at 10 uM measured after 12 to 14 hrs by sRICA assay; type: functional; conditions: Skin of body, time 12-14 hrs
Homo sapiens [11] = species: Homo sapiens; experiment: Ex-vivo reduction in proinflammatory cytokine levels in psoriasis patient assessed as reduction in IL-19 level in skin tissue at 10 uM measured after 12 to 14 hrs by sRICA assay; type: functional; conditions: Skin of body, time 12-14 hrs
Homo sapiens [12] = species: Homo sapiens; experiment: Ex-vivo reduction in proinflammatory cytokine levels in psoriasis patient assessed as reduction in IL-17F level in skin tissue at 10 uM measured after 12 to 14 hrs by sRICA assay; type: functional; conditions: Skin of body, time 12-14 hrs
Mus musculus = experiment: Anti-inflammatory activity against psoriasis mouse model assessed as reduction in epidermal thickness treated topically; type: functional
cells [13] = conditions: Homo sapiens, PBMC
[14] = Inhibition of SRC1 coactivator recruitment in human PBMC; type: functional, cell-based
Homo sapiens [15] = species: Homo sapiens; experiment: Ex-vivo reduction in proinflammatory cytokine levels in psoriasis patient assessed as reduction in IL-17A level in skin tissue at 10 uM measured after 12 to 14 hrs by sRICA assay; type: functional; conditions: Skin of body, time 12-14 hrs
[16] = target: T1, Nuclear receptor ROR-gamma; experiment: Inhibition of RORgammat LBD (unknown origin) expressed in Sf21 cells assessed as fluorescence signal by TR-FRET assay
cells [17] = conditions: Homo sapiens, Th17
Description: Inhibition of IL-17 production in human Th17 cells

[18] = Inhibition of IL-17 production in human PBMC isolated from COPD patients measured after 72 hrs by ELISA based assay; type: functional, cell-based
[19] = Inhibition of IL-17 production in human BAL cells isolated from COPD patients measured after 72 hrs by ELISA based assay; type: functional; conditions: Bronchoalveolar lavage cell
[20] = Plasma clearance in rat; type: ADME
[21] = target: T1, Nuclear receptor ROR-gamma; experiment: Inhibition of human GAL4-fused RORgamma LBD transfected in HEK293T cell measured after 24 hrs by luciferase reporter assay; type: cell-based
[22] = Suppression of Th17 polarization in human CD4+ T cells cultured under Th17-skewing conditions measured after 4 days
[23] = Unbound fraction in human plasma; type: ADME, cell-free
[24] = Oral bioavailability in rat; type: ADME, organism-based; conditions: in vivo
[25] = Oral bioavailability in dog; type: ADME, organism-based, Canis lupus familiaris; conditions: in vivo
[26] = Solubility of the compound; type: physicochemical
[27] = target: T1, Nuclear receptor ROR-gamma; experiment: Inhibition of transactivation of Gal4-tagged RORgamma (unknown origin) transfected in human HG5LN cells incubated for 18 hrs by luciferase reporter gene assay; type: cell-based
Homo sapiens [28] = species: Homo sapiens; experiment: tissue or blood; conditions: 18 h
Description: Reduction of IL17 level in human whole blood measured after 18 hrs by ELISA

[29] = Half life in mouse; type: ADME, organism-based; conditions: in vivo
[30] = Oral bioavailability in mouse; type: ADME, organism-based; conditions: in vivo
Homo sapiens [31] = species: Homo sapiens; experiment: tissue or blood; conditions: 18 h; remark: listed apart in the source
Description: Reduction of IL22 level in human whole blood measured after 18 hrs by ELISA

Homo sapiens [32] = species: Homo sapiens; experiment: tissue or blood; conditions: 18 h; remark: listed apart in the source
Description: Reduction of IL17F level in human whole blood measured after 18 hrs by ELISA

cells [33] = conditions: Homo sapiens, PBMC, 144 h
Description: Decrease in Tc17 cell differentiation in CD8+ T cells from human PBMC cells cultured under the Tc17-skewing conditions measured after 6 days

IC50 [1]: < 10000 nM | IC50 [2]: < 10000 nM | IC50 [3]: < 10000 nM | IC50 [4]: < 10000 nM
Compound: O=S(=O)(c1ccccc1)N1CCC(Cn2ccc3nc(-c4cn[nH]c4)ccc32)CC1

IC50 [5]: 89 nM
Compound: C[C@H]1CN(Cc2cncc(NS(=O)(=O)c3c(Cl)cc(Cl)cc3Cl)c2)CCN1C(=O)C1CCCC1

IC50 [6]: 31 nM | IC50 [7]: 97 nM
Compound: Cc1ncc(C(=O)Nc2cc(F)cc(CN3CCN(C(=O)C4CCCC4)[C@@H](C)C3)c2C)cn1

IC50 [8]: 2 nM
Compound: O=C(O)c1ccc(-c2nn(C(=O)c3c(Cl)cccc3C(F)(F)F)c3cccnc23)c(F)c1

IC50 [1]: < 10000 nM | IC50 [2]: < 10000 nM | IC50 [3]: < 10000 nM | IC50 [4]: < 10000 nM
Compound: O=S(=O)(c1ccc(Cl)cc1)N1CCC(Cn2ccc3cc(-c4cn[nH]c4)ccc32)CC1

IC50 [9]: < 100 nM
Compound: Cc1cc(C(F)(F)F)cc2c1cc(Cc1c(Cl)ccc(C(=O)N3CCN(C4COC4)CC3)c1Cl)n2C

IC50 (cells [13]): 63 nM | IC50 [14]: 20 nM
Compound: CCc1ccc(N(CC(C)C)S(=O)(=O)c2ccc(OCC3CCOCC3)c(CO)c2)cc1 [GSK2981278]
inhibition in vivo at 10 µM (Homo sapiens [10]): > 50% | inhibition in vivo at 10 µM (Homo sapiens [11]): > 50% | inhibition in vivo at 10 µM (Homo sapiens [12]): > 50% | inhibition (INH) (Mus musculus): 23% | inhibition in vivo at 10 µM (Homo sapiens [15]): > 50%

IC50 [16]: < 500 nM
Compound: COc1cc2c(cc1N1CCOCC1)CC(Cc1cccc(C(F)(F)F)c1)C2=O (stereo unspecified)

IC50 (cells [17]): 29.8 nM
Compound: COc1c(NC(=O)c2cccc(C#N)c2)cnc2c1c(C1CCN(C(=O)C3CCCC3)CC1)cn2C

IC50 (cells [17]): 40 nM
Compound: O=C(Nc1ccc2c(c1)CN(S(=O)(=O)c1cccc(C(F)(F)F)c1)CCC2)c1c(F)cccc1Cl

IC50 [18]: 147 nM | IC50 [19]: 350 nM
Compound: CCn1c(C(C)(C)Oc2ccc(F)cc2F)nc2cc(NC(=O)Cc3ccc(S(=O)(=O)CC)cc3)ccc21

clearance [20]: 5 mL/min/kg
Compound: O=C(O)c1ccc(-c2nn(C(=O)c3c(Cl)cccc3C3(C(F)(F)F)CC3)c3cccnc23)c(F)c1

Compound: COC(=O)[C@]12CCC(C)(C)CC1C1C(=O)C=C3[C@@]4(C)C=C(C#N)C(=O)[C@@](C)(O)[C@@H]4CC[C@@]3(C)[C@]1(C)CC2 (stereo partly specified)
IC50 [21]: 115 nM | IC50 [22]: 18 nM

fraction unbound [23]: 0.16 | bioavailability [24]: 34% | bioavailability [25]: 96% | solubility [26]: 380 µM (≈ 199 µg/mL)
Compound: CC(=O)N1Cc2cc(S(C)(=O)=O)ccc2[C@@H]1C(=O)Nc1ccc(C(O)(C(F)(F)F)C(F)(F)F)cc1

IC50 [27]: 19 nM
Compound: Cc1ccc(N(CC(C)C)S(=O)(=O)c2ccc3c(c2)[nH]c(=O)n3CC2CCOCC2)c(C)c1

IC50 [22]: 28 nM | IC50 (Homo sapiens [28]): 120 nM | half-life [29]: > 4 h | bioavailability [30]: 96% | IC50 (Homo sapiens [31]): 1600 nM | IC50 (Homo sapiens [32]): 430 nM | IC50 (cells [13]): 102 nM | IC50 (cells [33]): 9.5 nM
Compound: COc1ccc2c(n1)CCN(C(=O)[C@H]1C[C@@H](CC(=O)O)C1)[C@H]2C(=O)Nc1cc(F)c2c(c1)CCC2(C)C
